What was measured:
MC4 = biological target: T1, MC4 (Homo sapiens, UniProt P32245); test: GPCR radioligand binding (RLB) assay, melanocortin MC4, [125I]NDP-αMSH
T1 construct: purchased Perkin Elmer BioSignal; host or cells: HEK 293
Outline: (§1)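 Membranes from HEK 293 cells expressing the recombinant human receptor were equilibrated with [125I]SST-14 (SST5) or [125I]NDP-αMSH (MC4), then compound added for an optimized incubation. Bound ligand separated by filtration on PEI-coated glass fiber and counted by liquid scintillation.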

SST5 = biological target: T2, SST5 (Homo sapiens, UniProt P35346); test: GPCR radioligand binding (RLB) assay, somatostatin SST5, [125I]SST-14; details: for SSTS inhibition at 10 micromolar: Example Library 4; for SST5 inhibition at 10 micromolar: 10 micromolar compound, recombinant human receptor membranes (HEK 293)
T2 construct: purchased Perkin Elmer BioSignal; host or cells: HEK 293
T2 sequence (P35346 whole entry): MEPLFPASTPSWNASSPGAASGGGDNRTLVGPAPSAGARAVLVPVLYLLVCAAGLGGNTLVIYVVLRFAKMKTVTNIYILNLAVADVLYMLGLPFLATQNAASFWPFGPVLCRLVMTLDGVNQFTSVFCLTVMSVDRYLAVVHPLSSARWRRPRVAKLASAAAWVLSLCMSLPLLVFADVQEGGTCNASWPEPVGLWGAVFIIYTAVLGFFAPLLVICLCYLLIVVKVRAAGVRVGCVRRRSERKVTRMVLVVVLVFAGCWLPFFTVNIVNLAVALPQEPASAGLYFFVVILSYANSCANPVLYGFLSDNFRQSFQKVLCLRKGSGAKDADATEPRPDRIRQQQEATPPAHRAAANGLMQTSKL
Outline: as §1

[1] = 10 micromolar, Example Library 4
[2] = 10 micromolar compound, recombinant human receptor membranes (HEK 293)

T1 sequence (P32245 whole entry): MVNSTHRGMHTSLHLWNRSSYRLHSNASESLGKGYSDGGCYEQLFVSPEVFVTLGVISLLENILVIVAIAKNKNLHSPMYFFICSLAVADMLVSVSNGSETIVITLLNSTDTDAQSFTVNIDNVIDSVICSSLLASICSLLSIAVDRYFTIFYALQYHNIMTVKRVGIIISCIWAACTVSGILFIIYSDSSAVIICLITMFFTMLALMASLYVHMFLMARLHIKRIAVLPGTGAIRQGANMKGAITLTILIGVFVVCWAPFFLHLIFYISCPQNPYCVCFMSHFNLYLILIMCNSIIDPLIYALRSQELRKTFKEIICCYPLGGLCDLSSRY

SMILES | MC4 inhibition at 10 micromolar (MC4; [1]) | SSTS inhibition at 10 micromolar (SST5) | MC4 inhibition at 10 micromolar (MC4; [2]) | SST5 inhibition at 10 micromolar (SST5)
COCC1OC(OCc2ccc3ccccc3c2)C(NC(=O)CNC(=N)N)C(OCc2ccc(Cl)cc2)C1O (stereo not drawn) [Compound 291] | + (Indicates inhibition greater than . . . 50%) | + (Indicates inhibition greater than . . . 50%) | – | –
COCC1OC(OCc2ccc3ccccc3c2)C(NC(=O)CCNC(=N)N)C(OCc2ccc(Cl)cc2)C1O (stereo not drawn) [Compound 293] | + (Indicates inhibition greater than . . . 50%) | + (Indicates inhibition greater than . . . 50%) | – | –
COCC1OC(OCc2ccc3ccccc3c2)C(NC(=O)CCCN)C(OCc2ccc(Cl)cc2)C1O (stereo not drawn) [Compound 294] | + (Indicates inhibition greater than . . . 50%) | + (Indicates inhibition greater than . . . 50%) | – | –
COCC1OC(OCc2ccc3ccccc3c2)C(NC(=O)CCCNC(=N)N)C(OCc2ccc(Cl)cc2)C1O (stereo not drawn) [Compound 295] | + (Indicates inhibition greater than . . . 50%) | + (Indicates inhibition greater than . . . 50%) | – | –
COCC1OC(OCc2ccc3ccccc3c2)C(NC(=O)CNC(=N)N)C(OCc2ccc(-c3ccccc3)cc2)C1O (stereo not drawn) [Compound 297] | + (Indicates inhibition greater than . . . 50%) | + (Indicates inhibition greater than . . . 50%) | – | –
COCC1OC(OCc2ccc3ccccc3c2)C(NC(=O)CN)C(OCc2ccc(-c3ccccc3)cc2)C1O (stereo not drawn) [Compound 298] | + (Indicates inhibition greater than . . . 50%) | + (Indicates inhibition greater than . . . 50%) | – | –
COCC1OC(OCc2ccc3ccccc3c2)C(NC(=O)CCNC(=N)N)C(OCc2ccc(-c3ccccc3)cc2)C1O (stereo not drawn) [Compound 299] | + (Indicates inhibition greater than . . . 50%) | + (Indicates inhibition greater than . . . 50%) | – | –
COCC1OC(OCc2ccc3ccccc3c2)C(NC(=O)CCCN)C(OCc2ccc(-c3ccccc3)cc2)C1O (stereo not drawn) [Compound 300] | + (Indicates inhibition greater than . . . 50%) | + (Indicates inhibition greater than . . . 50%) | – | –
COCC1OC(OCc2ccc3ccccc3c2)C(NC(=O)CCCNC(=N)N)C(OCc2ccc(-c3ccccc3)cc2)C1O (stereo not drawn) [Compound 301] | + (Indicates inhibition greater than . . . 50%) | + (Indicates inhibition greater than . . . 50%) | – | –
COCC1OC(OCc2ccc3ccccc3c2)C(NC(=O)CN)C(OCc2ccc3ccccc3c2)C1O (stereo not drawn) [Compound 302] | + (Indicates inhibition greater than . . . 50%) | + (Indicates inhibition greater than . . . 50%) | – | –
COCC1OC(OCc2ccc3ccccc3c2)C(NC(=O)CNC(=N)N)C(OCc2ccc3ccccc3c2)C1O (stereo not drawn) [Compound 303] | + (Indicates inhibition greater than . . . 50%) | + (Indicates inhibition greater than . . . 50%) | – | –
COCC1OC(OCc2ccc3ccccc3c2)C(NC(=O)CCNC(=N)N)C(OCc2ccc3ccccc3c2)C1O (stereo not drawn) [Compound 305] | + (Indicates inhibition greater than . . . 50%) | + (Indicates inhibition greater than . . . 50%) | – | –
COCC1OC(OCc2ccc3ccccc3c2)C(NC(=O)CCCNC(=N)N)C(OCc2ccc3ccccc3c2)C1O (stereo not drawn) [Compound 307] | + (Indicates inhibition greater than . . . 50%) | + (Indicates inhibition greater than . . . 50%) | – | –
CSC1OC(COC(=O)CCC2CNc3ccccc32)C(O)C(OCc2cccc(N)c2)C1NCc1ccccc1 (stereo not drawn) [Compound 311] | – | – | + (Indicates inhibition greater than . . . 50%) | + (Indicates inhibition greater than . . . 50%)
CSC1OC(COC(=O)Cc2ccccc2)C(O)C(OCc2cccc(N)c2)C1NCc1ccc(Cl)cc1 (stereo not drawn) [Compound 313] | – | – | + (Indicates inhibition greater than . . . 50%) | + (Indicates inhibition greater than . . . 50%)

From patent publication US7994140B2, “Classes of compounds that interact with GPCRs” (Alchemia Limited, priority 2002, dated 2011)
